26 molecules from patent publication US9242996B2 (Novartis AG, priority 2013, dated 2016) can be followed below.

Each structure is given as a SMILES string.

Sequence of activated ERK2 (P28482 whole entry): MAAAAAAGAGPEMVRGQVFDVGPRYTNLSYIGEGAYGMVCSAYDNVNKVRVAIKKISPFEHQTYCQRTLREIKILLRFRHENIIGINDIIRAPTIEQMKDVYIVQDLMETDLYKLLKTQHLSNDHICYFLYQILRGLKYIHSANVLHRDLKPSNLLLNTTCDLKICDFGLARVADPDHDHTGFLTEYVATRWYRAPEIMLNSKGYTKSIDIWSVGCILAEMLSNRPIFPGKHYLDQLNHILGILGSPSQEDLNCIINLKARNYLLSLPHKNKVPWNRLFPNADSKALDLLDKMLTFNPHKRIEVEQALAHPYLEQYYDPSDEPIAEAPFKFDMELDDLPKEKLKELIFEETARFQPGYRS

The test concerns the target activated ERK2 (Homo sapiens (Human), UniProt P28482). Nature of the test: Activated ERK2 (20 pM) Kinase Assay (AlphaScreen, ERKtide phosphorylation). The class given is biochemical. The conditions noted are these: 0.02 nM ERK2, 400 nM ERKtide peptide, 35 μM ATP, 30 min preincubation. The method, then:
Activated ERK2 (20 pM) Kinase Assay:
The assay was carried out in 20 mM HEPES [pH 7.5], 5 mM MgCl2, 1 mM DTT, 0.01% Tween-20, 0.05% BSA using 0.02 nM ERK2, 400 nM ERKtide peptide and 35 μM ATP (all concentrations are final in the reaction) in a total volume of 10.25 μL. […] Compound dilution series were prepared in 100% DMSO. ERK2 was preincubated with compounds for 30 minutes at ambient temperature. Reaction was initiated by addition of a substrate cocktail of ERKtide peptide and ATP and was allowed to proceed for 4 hours at ambient temperature. Reaction was terminated by addition of 10 μL of a 2× stop buffer consisting of 100 mM Tris-Cl [pH 7.5], 25 mM EDTA, 0.01% Tween 20, 20 μg/mL of AlphaScreen Protein A Acceptor Beads, 20 μg/mL of Streptavidin Donor Beads (PerkinElmer, Waltham, Mass.), and 1:1000 dilution phospho-EGF Receptor (Thr669) antibody (Cat #8808, Cell Signaling Technology, Danvers, Mass.). Terminated reactions were read, after overnight incubation in the dark, on an EnVision Multilabel Plate Reader (PerkinElmer, Waltham, Mass.), with excitation and emission wavelengths set to 680 nm and 570 nm, respectively. IC50 values were determined using a four-parameter fit.
In general terms: Alpha assays give light when donor and acceptor beads are brought close together.
The term IC50 denotes the midpoint of a concentration-inhibition curve. A low value points to higher potency. Take `Cc1nn(C(F)F)cc1-c1cnc(N)c(-c2ccc(C(=O)N[C@H](CO)c3cccc(CF)c3)c(F)c2)c1` [Example 261, (S)-4-(2-amino-5-(1-(difluoromethyl)-3-methyl-1H-pyrazol-4-yl)pyridin-3-yl)-2-fluoro-N-(1-(3-(fluoromethyl)phenyl)-2-hydroxyethyl) benzamide]: 0.0168 nM corresponded to half-maximal inhibition (IC50).

`Cc1c(-c2cnc(N)c(-c3ccc(C(=O)N[C@H](CO)c4cc(F)cc(CF)c4)c(F)c3)c2)cnn1C(F)F` [Example 262, (S)-4-(2-amino-5-(1-(difluoromethyl)-5-methyl-1H-pyrazol-4-yl)pyridin-3-yl)-2-fluoro-N-(1-(3-fluoro-5-(fluoromethyl)phenyl)-2-hydroxyethyl) benzamide] displayed an IC50 of 0.014 nM.

For the molecule `Cc1c(-c2cnc(N)c(-c3ccc(C(=O)N[C@H](CO)c4cccc(Cl)c4)c(F)c3)c2)cnn1C(F)F` [Example 264, (S)-4-(2-amino-5-(1-(difluoromethyl)-5-methyl-1H-pyrazol-4-yl)pyridin-3-yl)-N-(1-(3-chlorophenyl)-2-hydroxyethyl)-2-fluorobenzamide], the midpoint of inhibition, the IC50, lay at 0.0431 nM. With `Cn1nncc1-c1cnc(N)c(-c2ccc(C(=O)N[C@H](CO)c3cc(F)cc(Br)c3)c(F)c2)c1` [Example 265] the figure was 0.031 nM; with `Cn1nncc1-c1cnc(N)c(-c2ccc(C(=O)N[C@H](CO)c3cccc(Br)c3)c(F)c2)c1` [Example 266, (S)-4-(2-amino-5-(1-methyl-1H-1,2,3-triazol-5-yl)pyridin-3-yl)-N-(1-(3-bromophenyl)-2-hydroxyethyl)-2-fluorobenzamide], 0.0487 nM; with `Cn1nncc1-c1cnc(N)c(-c2ccc(C(=O)N[C@H](CO)c3cc(F)cc(I)c3)c(F)c2)c1` [Example 267, (S)-4-(2-amino-5-(1-methyl-1H-1,2,3-triazol-5-yl)pyridin-3-yl)-2-fluoro-N-(1-(3-fluoro-5-iodophenyl)-2-hydroxyethyl) benzamide], 0.0158 nM. In turn, `Cc1nn(C)cc1-c1cnc(N)c(-c2ccc(C(=O)N[C@H](CO)c3cc(F)cc(C(F)F)c3)c(F)c2)c1` [Example 270, (S)-4-(2-amino-5-(1,3-dimethyl-1H-pyrazol-4-yl)pyridin-3-yl)-N-(1-(3-(difluoromethyl)-5-fluorophenyl)-2-hydroxyethyl)-2-fluorobenzamide] came in with an IC50 of 0.0467 nM. In turn, `Cc1c(-c2cnc(N)c(-c3ccc(C(=O)N[C@H](CO)c4cc(F)cc(C(F)F)c4)c(F)c3)c2)cnn1C` [Example 271, (S)-4-(2-amino-5-(1,5-dimethyl-1H-pyrazol-4-yl)pyridin-3-yl)-N-(1-(3-(difluoromethyl)-5-fluorophenyl)-2-hydroxyethyl)-2-fluorobenzamide] displayed an IC50 of 0.0308 nM. This IC50 lies about 1.5-fold lower than the previous one. With `Cc1c(-c2cnc(N)c(-c3ccc(C(=O)N[C@H](CO)c4cc(F)cc(C(F)F)c4)c(F)c3)c2)cnn1C(F)F` [Example 273, (S)-4-(2-amino-5-(1-(difluoromethyl)-5-methyl-1H-pyrazol-4-yl)pyridin-3-yl)-N-(1-(3-(difluoromethyl)-5-fluorophenyl)-2-hydroxyethyl)-2-fluorobenzamide] the figure was 0.0482 nM; with `Cc1nn(C(F)F)cc1-c1cnc(N)c(-c2ccc(C(=O)N[C@H](CO)c3cc(F)cc(C(F)F)c3)c(F)c2)c1` [Example 274, (S)-4-(2-amino-5-(1-(difluoromethyl)-3-methyl-1H-pyrazol-4-yl)pyridin-3-yl)-N-(1-(3-(difluoromethyl)-5-fluorophenyl)-2-hydroxyethyl)-2-fluorobenzamide], 0.0312 nM; with `Cc1c(-c2cnc(N)c(-c3ccc(C(=O)N[C@H](CO)c4cccc(C(F)F)c4)c(F)c3)c2)cnn1C(F)F` [Example 275, (S)-4-(2-amino-5-(1-(difluoromethyl)-5-methyl-1H-pyrazol-4-yl)pyridin-3-yl)-N-(1-(3-(difluoromethyl)phenyl)-2-hydroxyethyl)-2-fluorobenzamide], 0.0745 nM.

For the molecule `Cc1c(-c2cnc(N)c(-c3ccc(C(=O)N[C@H](CO)c4cccc(C(F)F)c4)c(F)c3)c2)cnn1C` [Example 276, (S)-4-(2-amino-5-(1,5-dimethyl-1H-pyrazol-4-yl)pyridin-3-yl)-N-(1-(3-(difluoromethyl)phenyl)-2-hydroxyethyl)-2-fluorobenzamide], the IC50 was 0.0371 nM. With `Cc1nn(C)cc1-c1cnc(N)c(-c2ccc(C(=O)N[C@H](CO)c3cccc(C(F)F)c3)c(F)c2)c1` [Example 277, (S)-4-(2-amino-5-(1,3-dimethyl-1H-pyrazol-4-yl)pyridin-3-yl)-N-(1-(3-(difluoromethyl)phenyl)-2-hydroxyethyl)-2-fluorobenzamide] the figure was 0.0707 nM. `Cc1c(-c2cnc(N)c(-c3ccc(C(=O)N[C@H](C)c4cc(F)cc(S(C)(=O)=O)c4)c(F)c3)c2)cnn1C(F)F` [Example 278, (R)-4-(2-amino-5-(1-(difluoromethyl)-5-methyl-1H-pyrazol-4-yl)pyridin-3-yl)-2-fluoro-N-(1-(3-fluoro-5-(methylsulfonyl)phenyl)ethyl) benzamide]: half-maximal inhibition (IC50) was put at 0.146 nM. As for `Cn1nncc1-c1cnc(N)c(-c2ccc(C(=O)N[C@H](CO)c3cccc(C(F)F)c3)c(F)c2)c1` [Example 301], the figure is 0.0933 nM; as for `NC[C@@H](NC(=O)c1ccc(-c2nc([C@@H]3CC[C@@H](O)[C@H](F)C3)cnc2N)cc1F)c1cc(F)cc(I)c1` [Example 315, N-((S)-2-amino-1-(3-fluoro-5-iodophenyl)ethyl)-4-(3-amino-6-((1R,3R,4R)-3-fluoro-4-hydroxy-cyclohexyl)pyrazin-2-yl)-2-fluorobenzamide], 0.005 nM. With `Nc1ncc(C2CCOCC2)nc1-c1ccc(C(=O)N[C@@H](C#CC2CC2)CO)c(F)c1` [Example 321, (S)-4-(3-amino-6-(tetrahydro-2H-pyran-4-yl)pyrazin-2-yl)-N-(4-cyclopropyl-1-hydroxybut-3-yn-2-yl)-2-fluorobenzamide] the figure was 84.9 nM. As for `Nc1ncc(C2CCOCC2)nc1-c1ccc(C(=O)N[C@H](CO)c2cc(F)cc(CF)c2)c(F)c1` [Example 329, (S)-4-(3-amino-6-(tetrahydro-2H-pyran-4-yl)pyrazin-2-yl)-2-fluoro-N-(1-(3-fluoro-5-(fluoromethyl)phenyl)-2-hydroxyethyl) benzamide], the figure is 0.01 nM; as for `Nc1ncc(C2CCOCC2)nc1-c1ccc(C(=O)N[C@H](CO)c2cc(F)cc(Cl)c2)c(F)c1` [Example 330, (S)-4-(3-amino-6-(tetrahydro-2H-pyran-4-yl)pyrazin-2-yl)-N-(1-(3-chloro-5-fluorophenyl)-2-hydroxyethyl)-2-fluorobenzamide], 0.0222 nM; as for `C[C@@H](O)[C@@H](NC(=O)c1ccc(-c2nc(C3CCOCC3)cnc2N)cc1F)c1cccc(Cl)c1` [Example 331, 4-(3-amino-6-(tetrahydro-2H-pyran-4-yl)pyrazin-2-yl)-N-((1S,2R)-1-(3-chlorophenyl)-2-hydroxypropyl)-2-fluorobenzamide], 0.0645 nM. Turning to `C[C@@H](O)[C@@H](NC(=O)c1ccc(-c2cc(-c3cnn(C)c3)cnc2N)cc1F)c1cccc(Cl)c1` [Example 332, 4-(2-amino-5-(1-methyl-1H-pyrazol-4-yl)pyridin-3-yl)-N-((1S,2R)-1-(3-chlorophenyl)-2-hydroxypropyl)-2-fluorobenzamide], the IC50 was determined as 0.815 nM. Molecule `Nc1ncc(C2CCOCC2)nc1-c1ccc(C(=O)N[C@H](CO)c2cc(F)cc(C(F)F)c2)c(F)c1` [Example 335, (S)-4-(3-amino-6-(tetrahydro-2H-pyran-4-yl)pyrazin-2-yl)-N-(1-(3-(difluoromethyl)-5-fluorophenyl)-2-hydroxyethyl)-2-fluorobenzamide] came in with an IC50 of 0.0208 nM. `CNC[C@@H](NC(=O)c1ccc(-c2nc(C3CCOCC3)cnc2N)cc1F)c1cc(F)cc(Cl)c1` [Example 336, (S)-4-(3-amino-6-(tetrahydro-2H-pyran-4-yl)pyrazin-2-yl)-N-(1-(3-chloro-5-fluorophenyl)-2-(methylamino)ethyl)-2-fluorobenzamide]: the midpoint of inhibition, the IC50, lay at 0.0143 nM. The IC50 values of the last two molecules are within 1.5-fold of each other. Turning to `Nc1ncc([C@H]2CC[C@H](O)CC2)nc1-c1ccc(C(=O)N[C@H](CO)c2cc(F)cc(C(F)F)c2)c(F)c1` [Example 337, 4-(3-amino-6-((1r,4S)-4-hydroxycyclohexy)pyrazin-2-yl)-N-((S)-1-(3-(difluoromethyl)-5-fluorophenyl)-2-hydroxyethyl)-2-fluorobenzamide], the IC50 was 0.0435 nM. Molecule `Nc1ncc([C@H]2CC[C@H](O)CC2)nc1-c1ccc(C(=O)N[C@H](CO)c2cccc(C(F)(F)F)c2)c(F)c1` [Example 340, 4-(3-amino-6-((1r,4S)-4-hydroxy-cyclohexyl)pyrazin-2-yl)-2-fluoro-N-((S)-2-hydroxy-1-(3-(trifluoromethyl)phenyl)ethyl) benzamide] registered an IC50 of 187 nM. Regarding `Nc1ncc([C@H]2CC[C@@H](O)CC2)nc1-c1ccc(C(=O)N[C@H](CO)c2cccc(C(F)(F)F)c2)c(F)c1` [Example 341, 4-(3-amino-6-((1s,4R)-4-hydroxy-cyclohexyl)pyrazin-2-yl)-2-fluoro-N-((S)-2-hydroxy-1-(3-(trifluoromethyl)phenyl)ethyl) benzamide], it took 1050 nM to reach half-maximal inhibition (IC50). This IC50 is about 5.6-fold higher than that of the molecule before.
